These are literature values, as cited in US20240189233A1, “POWDERY PREPARATION AND METHOD FOR MANUFACTURING SAME” (ICHIMARU PHARCOS CO., LTD., priority 2021, published 2024).

SMILES strings stand for the structures.

The data set has as its system human breast cancer cells. Conditions: Cheng W L et al. (2011).

Turning to `C=C[C@H](O)C#CC#C[C@H](O)/C=C\CC/C=C\C` [araliadiol], the growth inhibitory activity entry was “growth inhibitory activity”.
